{"source": "patent US20060130172A1", "about": "“Gene encoding resistance to acetolactate synthase-inhibiting herbicides” (priority 2003, published 2006)", "key": {"[1]": {"system": "R11-AMACH smooth pigweed", "experiment": "Greenhouse screen of ALS-inhibiting herbicides on resistant smooth pigweed biotype", "format": "in vivo, Amaranthus hybridus L.", "conditions": "3 WAT; for Biomass Reduction: compared to untreated plant biomass; for Biomass: plant dry weight; for Visual Control: scale 0-99%", "source_text": "(§1) Seeds from a smooth pigweed (Aniaranthus hybridus L.) population (R11-AMACH) were collected from a field in southeastern Pennsylvania where extreme ALS-inhibitor herbicide selection pressure was imposed over a several year period within continuous soybean production. R11-AMACH was selected naturally with ALS-inhibiting herbicides representative of the SU, IMI, and TP herbicide chemistries.\n(§2) To establish levels and patterns of ALS resistance, R11-AMACH and an ALS susceptible smooth pigweed biotype (S-AMACH) were screened in the greenhouse with various rates of the ALS-inhibiting herbicides, chlorimuron (SU), thifensulfuron (SU), imazethapyr (IMI), pyrithiobac (POB), and cloransulam-methyl (TP). Rates evaluated were based on a log10 scale that included 0, 1/100×, 1/10×, 1×, 10×, and 100×, where 1× corresponds to the normal use rate in the field. R11-AMACH responded differently to the rate increase as compared to S-AMACH. […] Visual control, height, biomass, and biomass reduction are presented separately for chlorimuron (Table 3), thifensulfuron (Table 4), imazethapyr (Table 5), pyrithiobac (Table 6), and cloransulam (Table 7). Evaluations and measurements were recorded 3 weeks after herbicide treatment (WAT). Visual control was based on a scale of 0-99%, where 0% represents no control and 99% represents complete control. Biomass represents plant dry weights recorded several days after plants were harvested. Biomass reduction was calculated based on the amount of biomass reduced by herbicide treatment compared to the untreated plant biomass."}, "[2]": {"system": "S-AMACH smooth pigweed", "experiment": "Greenhouse screen of ALS-inhibiting herbicides on susceptible smooth pigweed biotype", "format": "in vivo, Amaranthus hybridus L.", "conditions": "3 WAT; for Biomass Reduction: compared to untreated plant biomass; for Biomass: plant dry weight; for Visual Control: scale 0-99%", "source_text": "as §1, §2"}}}
{"smiles": "CCc1cnc(C2=NC(C)(C(C)C)C(=O)N2)c(C(=O)O)c1", "note": "(stereo not shown) [imazethapyr, 2-[4,5-dihydro-4-methyl-4-(1-methylethyl)-5-oxo-1H-imidazol-2-yl]-5-ethyl-3-pyridinecarboxylic acid]", "values": [{"measurement": "Height", "setting": "[1]; rate 1/10×", "result": 28.0, "unit": "cm"}, {"measurement": "Biomass Reduction", "setting": "[1]; rate 1/10×", "result": 21.1, "unit": "%"}, {"measurement": "Biomass", "setting": "[1]; rate 1/10×", "result": 3.00, "unit": "g"}, {"measurement": "Visual Control", "setting": "[1]; rate 1/10×", "result": 9, "unit": "%"}, {"measurement": "Visual Control", "setting": "[1]; rate 1/100× (1× = normal use rate in the field)", "result": 2, "unit": "%"}, {"measurement": "Height", "setting": "[1]; rate 1/100×", "result": 32.8, "unit": "cm"}, {"measurement": "Biomass Reduction", "setting": "[1]; rate 1/100×", "result": "−8.2", "unit": "%"}, {"measurement": "Biomass", "setting": "[1]; rate 1/100×", "result": 4.11, "unit": "g"}, {"measurement": "Visual Control", "setting": "[1]; rate 1× (normal use rate)", "result": 16, "unit": "%"}, {"measurement": "Height", "setting": "[1]; rate 1×", "result": 20.3, "unit": "cm"}, {"measurement": "Biomass Reduction", "setting": "[1]; rate 1×", "result": 31.0, "unit": "%"}, {"measurement": "Biomass", "setting": "[1]; rate 1×", "result": 2.62, "unit": "g"}, {"measurement": "Height", "setting": "[1]; rate 10×", "result": 6.8, "unit": "cm"}, {"measurement": "Biomass Reduction", "setting": "[1]; rate 10×", "result": 86.8, "unit": "%"}, {"measurement": "Biomass", "setting": "[1]; rate 10×", "result": 0.50, "unit": "g"}, {"measurement": "Visual Control", "setting": "[1]; rate 10×", "result": 62, "unit": "%"}, {"measurement": "Height", "setting": "[1]; rate 100×", "result": 3.3, "unit": "cm"}, {"measurement": "Biomass Reduction", "setting": "[1]; rate 100×", "result": 96.1, "unit": "%"}, {"measurement": "Biomass", "setting": "[1]; rate 100×", "result": 0.15, "unit": "g"}, {"measurement": "Visual Control", "setting": "[1]; rate 100×", "result": 95, "unit": "%"}, {"measurement": "Height", "setting": "[2]; rate 1/10×", "result": 10.3, "unit": "cm"}, {"measurement": "Biomass Reduction", "setting": "[2]; rate 1/10×", "result": 81.6, "unit": "%"}, {"measurement": "Biomass", "setting": "[2]; rate 1/10×", "result": 0.63, "unit": "g"}, {"measurement": "Visual Control", "setting": "[2]; rate 1/10×", "result": 58, "unit": "%"}, {"measurement": "Height", "setting": "[2]; rate 1/100×", "result": 25.3, "unit": "cm"}, {"measurement": "Biomass Reduction", "setting": "[2]; rate 1/100×", "result": 42.3, "unit": "%"}, {"measurement": "Biomass", "setting": "[2]; rate 1/100×", "result": 1.98, "unit": "g"}, {"measurement": "Visual Control", "setting": "[2]; rate 1/100×", "result": 12, "unit": "%"}, {"measurement": "Visual Control", "setting": "[2]; rate 1× (normal use rate)", "result": 97, "unit": "%"}, {"measurement": "Height", "setting": "[2]; rate 1×", "result": 2.3, "unit": "cm"}, {"measurement": "Biomass Reduction", "setting": "[2]; rate 1×", "result": 98.3, "unit": "%"}, {"measurement": "Biomass", "setting": "[2]; rate 1×", "result": 0.06, "unit": "g"}, {"measurement": "Height", "setting": "[2]; rate 10×", "result": 0.3, "unit": "cm"}, {"measurement": "Biomass Reduction", "setting": "[2]; rate 10×", "result": 97.1, "unit": "%"}, {"measurement": "Biomass", "setting": "[2]; rate 10×", "result": 0.10, "unit": "g"}, {"measurement": "Visual Control", "setting": "[2]; rate 10×", "result": 99, "unit": "%"}, {"measurement": "Height", "setting": "[2]; rate 100×", "result": 2.3, "unit": "cm"}, {"measurement": "Biomass Reduction", "setting": "[2]; rate 100×", "result": 98.3, "unit": "%"}, {"measurement": "Biomass", "setting": "[2]; rate 100×", "result": 0.06, "unit": "g"}, {"measurement": "Visual Control", "setting": "[2]; rate 100×", "result": 95, "unit": "%"}]}
